This is an account of results in US20220348543A1, “SALTS OF OMECAMTIV MECARBIL AND SOLID FORMS THEREOF” (SYNTHON B.V., priority 2019, published 2022).

The nature of data set [1]: Solubility of Omecamtiv mecarbil salts in water solution (aqueous buffer) at different pH. It counts as physicochemical. The note with it: USP / Ph. Eur. descriptive terms, read-out: Category of solubility (Descriptive Term). On the procedure: The solubility of prepared salts was tested in water solution at different pH (1.2, 4.5 and 6.8) and compared to Omecamtiv mecarbil dihydrochloride monohydrate salt prepared according to a procedure disclosed in WO2006009726 application.
It can be concluded that solubility of all prepared salt is better that the solubility of dihydrochloride monohydrate salt.

Data set [2] is described as follows: Stability at 25° C. of the solid isolated from salt crystallisation. The class given is physicochemical. The conditions noted are these: crystallised from 2-butanone. On the procedure:
The preparation of Omecamtiv mecarbil methane sulfonic acid salt was tested also in following solvent: methanol, ethanol, isopropanol, 1-butanol, acetone and tetrahydrofurane. Solid obtainable from these solvents was not stable and it melted at a temperature 25° C. […] The solid Form M can be therefore used for purification of Omecamtiv mecarbil. The salt can be transformed into Omecamtiv mecarbil by contacting with a base (for example sodium hydrogen carbonate or potassium hydrogen carbonate or sodium carbonate or potassium carbonate or sodium hydroxide or potassium hydroxide) in a suitable solvent (for example an alcohol or acetone).
250 mg of Omecamtiv mecarbil was dissolved in a solvent (in Table below) at a temperature (in Table below). 40 μl methane sulfonic acid (1 eq. w.r.t. Omecamtiv mecarbil) was added. The mixture was cooled to 25° C. and stirred for 16 hours. If no solid appeared, mixture was then stirred at −15° C. Solid mass was filtered off and dried. The ratio between Omecamtiv mecarbil and the salt was determined by NMR as 1:2 (i.e. dimethane sulfonate salt).

For orientation: solubility means the dissolved amount per volume that the medium holds.

Each structure is given as a SMILES string. Where a name gives a salt, the structure may show the parent alone. Read-outs that look alike come from different tables or passages of the source.

As for `COC(=O)N1CCN(Cc2cccc(NC(=O)Nc3ccc(C)nc3)c2F)CC1` [Omecamtiv mecarbil p-toluene sulfonic acid salt], the solubility was at least 1000 mg/mL in data set [1] (aqueous buffer pH 4.5); at least 1000 mg/mL in data set [1] (aqueous buffer pH 6.8); at least 1000 mg/mL in data set [1] (simulated gastric fluid, aqueous buffer pH 1.2).
Turning to `COC(=O)N1CCN(Cc2cccc(NC(=O)Nc3ccc(C)nc3)c2F)CC1` [Salt with methane sulfonic acid, Form M, Omecamtiv mecarbil methane sulfonic acid salt], the “stability of the crystalline solid” value in data set [2] is “form M, stable at 25° C.,”.
